The text below walks through data of patent US12469647B2, “Electrolytic capacitor” (Panasonic Intellectual Property Management Co., Ltd., priority 2020, dated 2025).

The nature of this series: acid dissociation constant (pKa) of the conjugate acid of the base component. To be noted: water.
Text: The pKa of the conjugate acid of the base is the pKa of the cation of the base.
One may read the pKa as the negative logarithm of the acid dissociation constant. Low values mean a stronger acid or weaker base, high ones a weaker acid or stronger base. With `CCCCN1CCOCC1` [N-butylmorpholine], the pKa was determined as 7.5.
The molecule `CCCCNCCCC` [dibutylamine] had a pKa of 11.3.
Take `CC(C)CN(CC(C)C)CC(C)C` [triisobutylamine]: the pKa was determined as 9.5.
